Reference: patent US20260193267A1, “Solid Forms of Naphthyridine Compounds” (AMGEN INC., priority 2023, published 2026)
Entries after “also recorded” stand apart in the source; their conditions may differ.

What was measured:
physchem = assay: physchem
Source text: Suitable nonlimiting examples of counterions for forming salts with Compound A include benzene sulfonic acid (BSA), toluene sulfonic acid (TSA), sulfuric acid, hydrochloric acid, malonic acid, naphthalene-2-sulfonic acid, methane sulfonic acid, oxalic acid, tartaric acid, ethane sulfonic acid, cyclamic acid, maleic acid, or phosphoric acid.

[1] = Solubility of Form 1 in aqueous media; format: physicochemical; conditions: aqueous buffer; aqueous media at pHs of 1-8
[2] = Dynamic vapor sorption (DVS) moisture sorption; format: physicochemical
Description: DVS—Method 1: DVS was measured via a SMS (Surface Measurement Systems) DVS Resolution. The relative humidity at 25° C. was calibrated against the deliquescence point of LiCl, Mg(NO3)2 and KCl.
DVS—Method 2: Moisture sorption data was collected using a DVS vapor sorption analyzer. A sample size of approximately 10-20 mg was used in a glass or metal pan. Hygroscopicity was evaluated from 40 to 90 to 0 to 90 to 40% RH in increments of 5% RH or from 40 to 0 to 95 to 0 to 95% RH in increments of 10% RH. Data for adsorption and desorption cycles were collected. Equilibrium criteria were set at 0.002% weight change in 1 minute with a maximum equilibration time of 180 minutes.

[3] = Stability under compression forces representative of tableting; format: physicochemical; conditions: compression up to 200 MPa
[4] = Physical and chemical stability in excipient blends (ssNMR); format: physicochemical; conditions: 40° C./75% RH, 25° C./60% RH open, 40° C./75% RH closed

For `Nc1nc2cnc(C(=O)N3CCOC[C@@H]3c3ccc(C(F)(F)F)cc3)cc2c2c1COC2` [Compound A], which pKa (physchem) is on record?
Its pKa is 4.27.

Which solubility [1] does the source give for `Nc1nc2cnc(C(=O)N3CCOC[C@@H]3c3ccc(C(F)(F)F)cc3)cc2c2c1COC2` [Form 1] here?
Its solubility is over 10 µg/mL.

And the “hygroscopicity by DVS” value ([2]; 0% to 95% relative humidity at 25° C.)?
Its value is “non-hygroscopic; also recorded: non-hygroscopicity”.

What about the “change in form on DVS” value ([2]; 0-95% relative humidity at 25° C.) of the same compound?
The value was “no observable change in form”.

And the “form change by DSC and XRPD after compression” value [3]?
Its value is “no form change”.

What about the “physical and chemical stability by ssNMR” value [4] of the same compound?
Its value is “physically and chemically stable”.

What about the “degradation related to the Maillard reaction” value ([4]; after 2 weeks) of the same compound?
The value was “no evidence of degradation related to the Maillard reaction”.
